Assay results as given in patent publication US7105567B2, “3-substituted urea derivatives and medicinal use thereof” (Mitsubishi Pharma Corporation, priority 2000, dated 2006).
Counter-ions that a name gives are not always drawn. Values belong to the compound of their own block, whether it stands above or below them.

Legend:
[1] = target: T1, C5a receptor (Homo sapiens, UniProt P21730); assay: C5a receptor binding assay ([125I]-human C5a, dcAMP-U-937 cells); conditions: dcAMP-U-937 cell, [125I]-C5a 200 pM, 4° C. for 2 hr; read-out: IC50 value, concentration at which binding of [125I]-human C5a is inhibited by 50%
T1 construct: U-937 cell was stimulated with 1 mM dibutyryl cyclic AMP (dcAMP, SIGMA) for 2 days to express the C5a receptor; endogenous in cells; host or cells: U-937 cells (human histiocytic lymphoma line) differentiated with 1 mM dibutyryl cAMP for 2 days
T1 sequence (P21730 1-350): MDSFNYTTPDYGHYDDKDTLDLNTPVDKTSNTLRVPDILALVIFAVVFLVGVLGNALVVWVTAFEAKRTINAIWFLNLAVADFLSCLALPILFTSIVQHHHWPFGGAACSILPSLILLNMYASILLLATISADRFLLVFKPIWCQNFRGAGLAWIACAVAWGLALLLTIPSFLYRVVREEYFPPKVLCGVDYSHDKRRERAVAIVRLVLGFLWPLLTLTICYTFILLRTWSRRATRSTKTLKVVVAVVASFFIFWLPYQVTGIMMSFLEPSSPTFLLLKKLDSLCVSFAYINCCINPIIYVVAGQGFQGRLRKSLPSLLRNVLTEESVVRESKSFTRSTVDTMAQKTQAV
Description: The C5a receptor binding inhibitory action of C5a and the test compound was evaluated by a receptor binding assay comprising reacting human cell line U-937 (human histiocytic lymphoma line), which expresses the C5a receptor, with [^125I]-human C5a (Amersham Pharmacia Biotech) in a MultiScreen (MILLIPORE). First, U-937 cell was stimulated with 1 mM dibutyryl cyclic AMP (dcAMP, SIGMA) for 2 days to express the C5a receptor (dcAMP-U-937 cell), and suspended in a binding buffer [50 mM HEPES, 1 mM CaCl2, 5 mM MgCl2, 0.5% bovine serum albumin (BSA, SIGMA), 0.02% NaN3 (pH 7.2)] and stored at −80° C. The binding assay was started by the addition of 50 μL of dcAMP-U-937 cell suspension dissolved immediately before use, 25 μL of a binding buffer or a test compound solution, and 25 μL of [^125I]-C5a solution (final concentration 200 pM), to each well of the MultiScreen. […] After drying the MultiScreen, the radioactivity on the filter was measured using a gamma counter. The rate (% inhibition) of inhibition of C5a binding by the test compound was calculated by the following formula using the count value obtained without addition of the test compound as Total, the count value obtained with addition of non-labeled C5a as Non, and the count value obtained with addition of the test compound as Test. % Inhibition=100−[(Test−Non)/(Total−Non)]×100 […]

[2] = system: C5a stimulated neutrophile; assay: Action on increase of intracellular Ca2+ concentration of C5a stimulated neutrophile; assay type: cell-based, human
Description: A neutrophile fraction was separately taken from human peripheral venous blood using Lympholyte-poly (Cedarlane), and suspended in Hank's Balanced Salt Solution (HBSS, GIBCO BRL) supplemented with 1% fetal bovine serum (FBS). Then, Fura 2-AM (final concentration 5 μM, DOJINDO) was added to the neutrophile fraction (5×10^6 cells/mL), and the mixture was incubated at 37° C. for 40 min. The cells were washed by centrifugation and suspended to the concentration of 1×10^6 cells/mL. The intracellular Ca^2+ concentration was measured using a spectrophotofluorometer (CAF-110, JASCO Corporation), and calculated from the ratio (Ex340 value/Ex380 value) of fluorescent intensities at 500 nm upon excitation at 340 nm and 380 nm, the former being Ex340 value, the latter being Ex380 value. […] Then, Triton X-100 (final concentration 0.2%) was added and the cells were dissolved, and, sb2 value, which was the Ex 340 value then, and Rmax value, which was the Ex340 value/Ex380 value then, was measured. Then, EGTA (final concentration 3 mmol/L) was added and sf2 value, which was the Ex340 value then, and Rmin value, which was the Ex340/Ex380 value then, was measured. From these measurement results, the intracellular Ca^2+ concentration was calculated from the following formula. […]

[3] = system: C5a stimulated neutrophile; assay: Production of reactive oxygen species in C5a-stimulated neutrophile; assay type: cell-based; conditions: human neutrophile, C5a 3 nmol/L, luminol luminescence; read-out: IC50 value, inhibition of production of reactive oxygen species in C5a stimulated neutrophile
Description: A neutrophile fraction was separately taken from human peripheral venous blood using Lympholyte-poly (Cedarlane), and suspended in Hank's Balanced Salt Solution (HBSS, GIBCO BRL) containing 1% fetal bovine serum (FBS) and 1 mmol/L of luminol (Wako Pure Chemical Industries, Ltd.). Reactive oxygen species was measured using a luminometer (MicroLumat, Berthold) for 96 well plate. That is, 1×10^5 cells/150 μL of neutrophile suspension and 25 μL of a test compound solution were added to a well, which was set in a MicroLumat set for 37° C. and stood for about 5 min. Then, 25 μL of C5a (final concentration 3 nmol/L) was added and luminescence produced by the reaction of the luminol and the reactive oxygen species was measured with the lapse of time for 15 min. The rate (% inhibition) of inhibition of the production of reactive oxygen species in C5a stimulated neutrophile by the test compound was calculated by the following formula, wherein the peak value of the production of reactive oxygen species derived by C5a without addition of the test compound is Max, the peak value of the production of reactive oxygen species without addition of the test compound and without C5a stimulation is Min, and the peak value of the production of reactive oxygen species derived by C5a with the addition of the test compound is Test. % inhibition=100−[(Test−Min)/(Max−Min)]×100 […]

[4] = system: C5a-stimulated neutrophile; assay: Migrating ability of C5a-stimulated neutrophile; assay type: cell-based; conditions: 1.5 h; human neutrophile, C5a 100 pmol/L, chemotaxicell, 90 min; read-out: IC50 value, inhibition of migration of C5a-stimulated neutrophile
Description: A neutrophile fraction was separately taken from human peripheral venous blood using Lympholyte-poly (Cedarlane) and suspended in RPMI 1640 medium (GIBCO BRL) supplemented with 0.1% bovine serum albumin (BSA). To this neutrophile fraction (5×10^6 cells/mL) was added Calcein-AM (final concentration 5 μM, FUNAKOSHI), and the mixture was incubated at 37° C. for 30 min. The cells were washed by centrifugation and suspended to a concentration of 1×10^6 cells/mL. The migration was evaluated by adding neutrophiles to chemotaxicell (pore size: 3 μm, KURABO) and measuring the neutrophiles that migrated outside the chemotaxicell. First, 100 pmol/L of C5a solution was added to 24 well plate (500 μL/well) and chemotaxicell was set in the well. […] The fluorescent intensity of each well was measured by Cyto Fluor II (Ex: 485, Em: 530). The rate (% inhibition) of the inhibition of migration of C5a-stimulated neutrophile by the test compound was calculated by the following formula, wherein the fluorescence intensity of neutrophile that migrated by C5a stimulation without addition of the test compound is Max, the fluorescent intensity of neutrophile that migrated without addition of test compound and without C5a stimulation is Min, and the fluorescent intensity of neutrophile that migrated by C5a stimulation with the addition of the test compound is Test. % inhibition=100−[(Test−Min)/(Max−Min)]×100 […]

[5] = system: C5a-Induced Decrease in Neutrophile in Cynomolgus Monkey; assay: C5a-induced decrease in neutrophile in cynomolgus monkey; assay type: in vivo; conditions: 30 mg/kg orally, human C5a administered 4 hr later
Description: The action of the test compound on the decrease of neutrophile in peripheral blood, that occurs temporarily upon intravenous administration of human C5a to cynomolgus monkey, was evaluated. That is, the test compound was orally administered to cynomolgus monkey, and 4 hr later, human C5a was administered. The neutrophiles in peripheral blood were counted 2 min before and 1 min after administration of human C5a, and the rate (%) of decrease in neutrophiles in peripheral blood was calculated by the following formula. decrease rate (%)=100−[(neutrophiles in peripheral blood 1 min after administration of human C5a)/(neutrophiles in peripheral blood 2 min before administration of human C5a)]×100
Using the following formula, moreover, the inhibition rate (% inhibition) of decrease in neutrophiles in peripheral blood by the test compound was calculated. % inhibition=100−[(Test−Min)/(Max−Min)]×100 • Test: decrease rate of neutrophiles in peripheral blood when test compound and human C5a were administered • Min: decrease rate of neutrophiles in peripheral blood upon administration of administration medium for test compound and administration medium for human C5a • Max: decrease rate of neutrophiles in peripheral blood upon administration of administration medium for test compound and human C5a

- melting point: 124 to 125 °C
Compound: CC(C)c1cccc(C(C)C)c1NC(=O)N(Cc1ccc(N(C)C)cc1)c1ccc(F)cc1 [Example 1, N′-(2,6-diisopropylphenyl)-N-[(4-dimethylaminophenyl)methyl]-N-(4-fluorophenyl)urea]

- IC50 [1]: 100 nM
- IC50 ([2]; human peripheral blood neutrophile, recombinant human C5a 100 pmol/L, Fura 2-AM, read-out: IC50 value, inhibition of increase in intracellular Ca2+ concentration of C5a-stimulated neutrophile): 5 nM
- IC50 [3]: 10 nM
- IC50 [4]: 100 nM
Compound: CC(C)c1ccc(N(Cc2ccc(N(C)C)cc2)C(=O)Nc2c(C(C)C)cccc2C(C)C)cc1 [Example 34, N′-(2,6-diisopropylphenyl)-N-[(4-dimethylaminophenyl)methyl]-N-(4-isopropylphenyl)urea 9/10 fumarate]
- agonistic action (increase in intracellular Ca2+ induced by the compound) ([2]; compound 10 μmol/L, human neutrophile): not found

Compound: CC(C)c1ccc(N(Cc2ccc(Br)cc2)C(=O)Nc2c(C(C)C)cccc2C(C)C)cc1 [Example 53, N-[(4-bromophenyl)methyl]-N′-(2,6-diisopropylphenyl)-N-(4-isopropylphenyl)urea]
- % inhibition of decrease in neutrophiles in peripheral blood [5]: 74%

- melting point: 203 to 206 °C
Compound: CC(C)c1ccc(N(Cc2ccc(N(C)C)cc2)C(=O)Nc2c(C(C)C)cccc2C(C)C)cc1 (as salt: fumarate) [Example 34, N′-(2,6-diisopropylphenyl)-N-[(4-dimethylaminophenyl)methyl]-N-(4-isopropylphenyl)urea 9/10 fumarate]

- melting point: 134 to 135 °C
Compound: CC(C)c1ccc(N(Cc2cnn(Cc3ccc(C(F)(F)F)cc3)c2)C(=O)Nc2c(C(C)C)cccc2C(C)C)cc1 [Example 61, N′-(2,6-diisopropylphenyl)-N-(4-isopropylphenyl)-N-{[1-(4-trifluoromethylbenzyl)pyrazol-4-yl]methyl}urea]
